Results: PubChem BioAssay (NCI)
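Briefly, cells in 96-well plates were exposed to five compound concentrations for 48 h, and endpoints were estimated by linear interpolation. Here, GI50 denotes the concentration required for 50% inhibition of growth. TGI marks complete inhibition of growth.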

Columns and labels:
Test in all cases: NCI tumour cell line growth inhibition, 48 h
A498 renal = test system: A498 renal
A549 NSCLC = test system: A549 NSCLC
HCT-15 colon = test system: HCT-15 colon
HOP-62 NSCLC = test system: HOP-62 NSCLC
IGROV1 ovarian = test system: IGROV1 ovarian
M14 melanoma = test system: M14 melanoma
MOLT-4 leukemia = test system: MOLT-4 leukemia
SN12C renal = test system: SN12C renal
U251 CNS = test system: U251 CNS
EKVX NSCLC = test system: EKVX NSCLC

SMILES	GI50 (A498 renal) [µM]	TGI (A498 renal) [µM]	GI50 (A549 NSCLC) [µM]	TGI (A549 NSCLC) [µM]	GI50 (HCT-15 colon) [µM]	TGI (HCT-15 colon) [µM]	GI50 (HOP-62 NSCLC) [µM]	TGI (HOP-62 NSCLC) [µM]	GI50 (IGROV1 ovarian) [µM]	TGI (IGROV1 ovarian) [µM]	GI50 (M14 melanoma) [µM]	TGI (M14 melanoma) [µM]	GI50 (MOLT-4 leukemia) [µM]	TGI (MOLT-4 leukemia) [µM]	GI50 (SN12C renal) [µM]	TGI (SN12C renal) [µM]	GI50 (U251 CNS) [µM]	TGI (U251 CNS) [µM]	GI50 (EKVX NSCLC) [µM]	TGI (EKVX NSCLC) [µM]
COc1ccc(/C=C/C(=O)c2ccc(OC)c(OC)c2)cc1O	4.84	20.3	2.99	15.1	3.41	32.9	3.61	14.5	7.03	39.9	10.9	23.3	4.32	26.1	3.74	15.6	3.59	14.6		
CC(=O)Nc1ccc(COC(O)CN2CCCCC2)cc1[N+](=O)[O-] (configuration not stated)		> 100		> 100		> 100				> 100		> 100		> 100		> 100		> 100		
O=S(=O)(/N=c1/scc(-c2ccccc2)n1-c1ccccc1)c1ccc(N2N=C3c4ccccc4CC3C2c2cccs2)cc1 (configuration not stated)			57	> 100	67.3	> 100	73.2	> 100			81.5	> 100	19	63.7	94.3	> 100	31.2	> 100	35.5	> 100
CC(=O)[CH-]C(=O)c1ccccc1.CC(=O)[CH-]C(=O)c1ccccc1.C[C@]12CCC(=O)C=C1CC[C@@H]1C2CC[C@@]2(C)C1CC[C@@H]2[O-].C[C@]12CCC(=O)C=C1CC[C@@H]1C2CC[C@@]2(C)C1CC[C@@H]2[O-].Cl.[Ti+4] (some centres not stated)	16.5	30.8	18.4	43.9	15.2	43	20.6	59.9	21.8	46.4	15.9	41.8	35.3	> 100	20.8	70.6				
COc1cc([N+](=O)[O-])c(OC)cc1-c1nc2sc(Cl)cn2c1/C=N/NC1=NCCN1	1.85	3.57			1.64	2.99	1.2	2.53			1.39	2.8			1.67	3.52	1.65	3.02	2.33	5.64
COc1cc(/C=C2\C[C@H]3[C@@H]4CC=C5C[C@@H](O)CC[C@]5(C)[C@H]4CC[C@]3(C)[C@H]2O)ccc1OCCCn1ccnc1			1.18	2.63			3.45	20	12.5	> 50			> 50	> 50	2.73	13.2	0.923	1.72	6.06	> 50
Cc1ccc(Cl)c(Nc2ccccc2C(=O)O)c1Cl	22.2	87.4	30.4	> 100	22.7	54.2	31.3	> 100	32.3	93.4	21.3	62.6	29.9	83.9	30.7	> 100	26	82.4		
COc1ccc(C(=O)C(c2ccc(OCc3ccccc3)cc2)c2ccc(OCc3ccccc3)cc2)cc1				> 100		> 100		> 100		> 100		> 100		> 100		> 100		> 100		> 100
CCOc1cccc(-c2nc(N)nc(Nc3ccccc3SSc3ccccc3Nc3nc(N)nc(-c4cccc(OCC)c4)n3)n2)c1	8.24	> 100	2.02	4.78	2.18	> 100	1.57	4.46	3.65	97	4.1	> 100	2.61	> 100	2.32	14.8			3.56	> 100
Cn1c(NCC(O)CN2CCCC2)cc(=O)n(C)c1=O (configuration not stated)	> 100	> 100	> 100	> 100	> 100	> 100	> 100	> 100	> 100	> 100			> 100	> 100	> 100	> 100	> 100	> 100	> 100	> 100
COc1cc(/C=C/C(=O)N2CCN(C(=O)c3cc(OC)c(OC)c(OC)c3)CC2)ccc1OCCCOc1cc2c(cc1OC)C(=O)N1CCC[C@H]1C=N2	0.205	0.51	0.953	9.26	3.18	27.7	0.326	0.933			0.346	1.42	0.218	1.59	0.303	21.8	0.227	6.06	0.794	4.56
O=C(/C(=C\c1ccc(Cl)cc1)c1ccccc1)c1ccccc1		> 100				> 100		> 100		> 100		> 100		> 100		> 100		> 100		> 100
Cn1c(=O)c(Oc2ccc(F)cc2F)cc2cnc(NC3CCS(=O)(=O)CC3)nc21	> 25	> 25	> 25	> 25	> 25	> 25	> 14.8	> 25	> 21.2	> 25	> 25	> 25	> 25	> 25	> 25	> 25	> 25	> 25		
CCCCCCCCCCCCCCCCC(=O)O.CCCCCCCCCCCCCCCCCC(=O)O.CCCCCCCCCCCCCCCCCC(=O)O.CCCCCCCCCCCCCCCCCC(=O)O.CCCCCCCCCCCCCCCCCC(=O)O.CO[CH-]OC12COC1CC(O)C1(C)C(O)C(OC(C)O)C3=C(C)C(OC(=O)C(O)C([NH-])c4ccccc4)CC(O)(C(OC(=O)c4ccccc4)C21)C3(C)C.[Cu+].[Zn].[Zn].[Zn].[Zn].[Zn] (configuration not stated)	< 0.0025	0.0187	0.00818	> 22.3	0.222	> 25	0.0131	> 20.4	0.00711	4.39			0.0104	> 18.5	0.0116	> 25	0.00851	4.09	0.112	9.22
CCNC(=O)O/N=C1\CCC2[C@@H]3CC=C4C[C@@H](OC5CCCCO5)CC[C@]4(C)C3CC[C@]12C (some centres not stated)		> 100		64.2				> 100		> 100				3.87		6.07		4.29		5.78
OCc1ccc(N2CCc3ccccc3C2)cc1Cl	< 0.015	0.0355	0.0604	7.59	3.35	41.6	0.0222	24.7	< 0.0155	< 0.0281	34.1	> 100	27.2	> 78.7	11.4	> 100	< 0.0292	> 44.5		
O=C1CCSC2=C1SCc1sccc12				> 100		> 100		> 100		> 100		> 100		> 100		> 100				> 100
CCN1Cc2nc3sc(C)c(C)c3c(=O)n2C=C1C	20.3	> 100	38.5	> 100	3.5	19	16.4	75.1					2.46	8.7	13.8	62.1	4.23	> 100	21.8	> 100
CC1=CC(N2C(=O)C(C)=CC2O)NC1=O (configuration not stated)				> 100				> 100				> 100				> 100		> 100		> 100
Cc1cc(N(CCCl)CCCl)ccc1C=Nc1ccc2ccccc2c1	0.226	1.13	14.2	> 100	27.6	> 100	25.2	> 100	28.5	> 100	31.7	> 100	4.52	> 100	12.4	> 100	9.98	> 100		
COC(=O)C1=C(C(=O)OC)C2(C)Nc3ccccc3C2=C(c2ccccc2)C1 (configuration not stated)				46.7		51.8		50.1		52.9		31.8		29.6		57.7		41.6		70.5
Clc1ccc(-c2cc(-c3ccccc3)nc(NCCNc3ccnc4cc(Cl)ccc34)n2)cc1	1.64	3.31	1.71	3.45	1.63	3.25	1.68	3.48	1.6	3.27			1.89	4.19	1.74	3.28	1.72	3.37	1.6	3.34
Clc1ccc(OCc2nnc3n2N=C(c2ccc(Cl)cc2Cl)CS3)cc1			32.6	> 100	13.9	37.1	19.6	41.3	19.8	50.8	16.4	36.3	32.4	> 100	14.8	30.6	19.5	41.8	20.5	52.9
Cn1cc(C2=C(c3cn(C)c4ccccc34)C(=O)NC2=O)c2ccccc21	0.457	> 25	1.97	> 25	0.729	> 25	1.92	> 25	11.7	> 25	1.9	> 25	4.81	> 25	3.47	> 25	1.26	> 25		
COc1cc(-c2cc(-c3cc(OC)c(OC)c(OC)c3)nc3nc(N)[nH]c(=O)c23)ccc1Oc1ccnc2cc(Cl)ccc12	16.3	86.4	2.84	> 100	0.457	24.4	2.35	16.7	4.49	> 100			2.78	> 100	3.83	41.8	2.46	7.32		
COc1cc([C@@H]2C[C@H]2c2cc(SC)n[nH]2)cc(OC)c1OC			25.9	> 100	22.8	80.2	5.75	28.8	18.3	> 100	13.9	28.5	20.3	> 100	8.98	31.8	79.3	> 100	14.9	40.2
COc1ccc(Nc2cc(C)nc(NCCCNc3ccnc4cc(Cl)ccc34)n2)cc1	1.49	3.39	1.91	3.86	1.03	2.49	1.65	3.93	2.25	6.09			2.95	> 100	2.74	10.8	1.39	2.8		
CC1OC(OC2C(OC3CCC4(C)C(CCC5(C)C4CC=C4C6CC(C)(C)CCC6(C(=O)O)CCC45C)C3(C)CO)OCC(O)C2O)C(O)C(O)C1O (configuration not stated)		31.1		38.2		42.1		> 100		32.9				45.8		42		50.3		40
c1ccc2cc(C[n+]3ccn(CCCCCCCCCCn4cc[n+](Cc5ccc6ccccc6c5)c4)c3)ccc2c1	0.0129	2.77			3.76	> 100	1.09	7.24	1.11	3.08	2.76	15.7	1.36	3					0.442	9.07
